Test results reported in patent publication EP2340832A1, “Morphinan-6-one compounds for the treatment or prevention of neurodegenerative diseases” (Universität Innsbruck, priority 2009, dated 2011).

Experiments:
[1] = molecular target: T1, δ receptor (Rattus norvegicus, UniProt P33533); test: [35S]GTPγS functional assay, rat brain membranes, δ receptor; type: biochemical, Sprague-Dawley rat
T1 construct: Membrane fractions were prepared from Sprague-Dawley rat or guinea pig brains; from tissue; host or cells: Sprague-Dawley rat brain (without cerebella) membranes
Description: (§1) Membrane fractions were prepared from Sprague-Dawley rat or guinea pig brains as described above. To determine binding of [^35S]GTPyS, rat or guinea pig brain membranes (10 µg of protein) were incubated for 60 min at 30 °C in Tris-EGTA buffer (50 mM Tris-HCl buffer, 3 mM MgCl2, 1 mM EGTA, […], pH 7.4) containing 30 µM GDP, 0.05 nM [^35S]GTPyS and appropriate concentrations of the respective compounds according to the present invention in a final volume of 1 ml. The reaction was terminated by vacuum filtration through Whatman GF/B glass fibre filters. Filters were washed three times with ice-cold 50 mM Tris-HCI buffer (pH 7.4) and the bound radioactivity was measured by liquid scintillation counting (Beckman Coulter™ LS6500). Basal activity was determined by subtracting the non-specific binding (measured in the presence of 100 µM unlabelled GTPyS) from the total binding (measured in the absence of the compound).
(§2) Stimulation produced by the compound is given as percentage of the basal activity (given as 100%). Functional data, EC50 (nM; half maximal effective concentration) and maximal stimulation Emax (% stimulation over basal level; maximal effective concentration), were calculated by using nonlinear regression analysis and sigmoidal curve fitting GraphPad Prism (San Diego, CA, USA) program. The values are expressed as the mean ± S.E.M of at least 3 independent experiments, each performed in triplicate. Statistical analysis was carried out using SPSS software (SPSS Inc., Chicago, lL, USA) and the Student T-test was used to compare different assay conditions. A ρ value < 0.05 was considered statistically significant.

[2] = molecular target: T2, K receptor (Cavia porcellus, UniProt P41144); type: biochemical, guinea pig
T2 construct: Membrane fractions were prepared from Sprague-Dawley rat or guinea pig brains; from tissue; host or cells: guinea pig brain (without cerebella) membranes

[3] = molecular target: µ opioid receptor (Rattus norvegicus, UniProt P33535); test: [35S]GTPγS functional assay, rat brain membranes, µ receptor; type: biochemical, Sprague-Dawley rat; design: Membrane fractions were prepared from Sprague-Dawley rat or guinea pig brains; from tissue; host or cells: Sprague-Dawley rat brain (without cerebella) membranes
Description: as §1, §2

T2 sequence (P41144 whole entry): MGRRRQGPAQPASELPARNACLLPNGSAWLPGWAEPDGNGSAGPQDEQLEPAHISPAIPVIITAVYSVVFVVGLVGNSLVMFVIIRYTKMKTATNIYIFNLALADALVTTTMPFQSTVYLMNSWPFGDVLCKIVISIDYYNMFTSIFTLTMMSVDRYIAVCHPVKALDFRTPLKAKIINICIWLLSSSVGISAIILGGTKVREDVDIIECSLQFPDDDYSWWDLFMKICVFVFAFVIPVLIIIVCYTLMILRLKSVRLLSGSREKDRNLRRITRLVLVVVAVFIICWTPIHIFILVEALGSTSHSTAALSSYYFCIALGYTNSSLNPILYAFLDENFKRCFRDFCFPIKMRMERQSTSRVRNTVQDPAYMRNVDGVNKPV
Chain of µ opioid receptor (P33535 whole entry): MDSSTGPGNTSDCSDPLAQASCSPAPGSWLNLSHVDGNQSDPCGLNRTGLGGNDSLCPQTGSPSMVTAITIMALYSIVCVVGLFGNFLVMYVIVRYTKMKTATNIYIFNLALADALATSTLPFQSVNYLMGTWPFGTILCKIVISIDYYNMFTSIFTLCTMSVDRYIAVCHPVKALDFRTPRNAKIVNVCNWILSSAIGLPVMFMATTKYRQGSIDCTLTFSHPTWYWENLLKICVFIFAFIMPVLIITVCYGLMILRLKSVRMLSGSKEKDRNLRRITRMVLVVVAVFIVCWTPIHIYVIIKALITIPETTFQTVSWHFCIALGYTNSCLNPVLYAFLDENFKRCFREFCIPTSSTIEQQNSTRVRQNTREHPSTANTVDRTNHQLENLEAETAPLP
T1 sequence (P33533 whole entry): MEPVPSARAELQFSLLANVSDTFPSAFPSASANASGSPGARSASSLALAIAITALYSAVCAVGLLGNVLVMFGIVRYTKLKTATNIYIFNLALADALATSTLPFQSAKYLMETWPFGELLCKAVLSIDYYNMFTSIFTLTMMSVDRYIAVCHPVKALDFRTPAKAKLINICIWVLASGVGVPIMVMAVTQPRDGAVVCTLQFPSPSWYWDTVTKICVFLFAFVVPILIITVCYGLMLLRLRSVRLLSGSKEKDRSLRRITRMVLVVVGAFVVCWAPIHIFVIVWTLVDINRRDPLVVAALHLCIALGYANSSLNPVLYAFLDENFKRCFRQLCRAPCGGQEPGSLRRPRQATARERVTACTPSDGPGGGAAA

For `C=CCN1CC[C@]23CC(=O)CC[C@H]2[C@H]1Cc1cccc(OC)c13` [Compound 4, 4-methoxy-N-allylmorphinan-6-one], which “[35S]GTPγS binding on co-incubation with naltrindole versus antagonist alone” value ([1]; 10 µM each) is on record?
Its value is “did not produce any significant increase”.

What about the “effect on [35S]GTPγS binding stimulated by SNC 80” value ([1]; compound 10 µM, SNC 80 10 µM) of the same compound?
Its value is “did not cause any significant changes”.

What about the “[35S]GTPγS binding in the presence of the compound alone” value [2] of the same compound?
Its value is “no increase”.

What about the “[35S]GTPγS binding on co-incubation with Nor-BNI versus antagonist alone” value [2] of the same compound?
Its value is “did not produce any significant increase”.

What about the “effect on [35S]GTPγS binding stimulated by U69,593” value [2] of the same compound?
Its value is “slight, but significant decrease”.

And the “function at the µ opioid receptor” value [3]?
Its value is “antagonistic function”.

And the “[35S]GTPγS binding on co-incubation with cyprodime versus antagonist alone” value ([3]; 10 µM each, rat brain membranes)?
The value was “did not produce any significant increase”.

What about the “effect on [35S]GTPγS binding stimulated by DAMGO” value ([3]; compound 10 µM, DAMGO 10 µM, rat brain membranes) of the same compound?
The value was “significantly decreased”.

What about the “[35S]GTPγS binding in the presence of the compound alone” value ([3]; rat brain membranes, compared with DAMGO) of the same compound?
Its value is “no increase”.
